Test results published in US12594343B2, “Treatment of cancer” (INNATE PHARMA, priority 2020, dated 2026).

T1: wild-type human Nectin-4 protein (Homo sapiens, UniProt Q96NY8)
T1 construct: expressed in transfected cells
T1 sequence (Q96NY8 32-510): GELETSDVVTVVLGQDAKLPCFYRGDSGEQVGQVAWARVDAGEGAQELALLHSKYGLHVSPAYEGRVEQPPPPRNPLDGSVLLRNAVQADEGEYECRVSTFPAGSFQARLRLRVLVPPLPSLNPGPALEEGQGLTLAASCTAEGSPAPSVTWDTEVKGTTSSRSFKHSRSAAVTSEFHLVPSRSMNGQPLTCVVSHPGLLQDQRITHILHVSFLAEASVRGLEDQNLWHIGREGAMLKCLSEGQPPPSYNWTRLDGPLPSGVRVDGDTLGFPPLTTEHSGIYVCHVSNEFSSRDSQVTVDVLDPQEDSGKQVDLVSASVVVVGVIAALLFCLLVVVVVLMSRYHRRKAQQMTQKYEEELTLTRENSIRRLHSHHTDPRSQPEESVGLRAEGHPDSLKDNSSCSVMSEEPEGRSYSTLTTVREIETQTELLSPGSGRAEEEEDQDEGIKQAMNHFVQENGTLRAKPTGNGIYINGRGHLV

T2: modified Nectin-4 lacking the Ig-like V domain (the C1C2 construct) (Homo sapiens, UniProt Q96NY8)
T2 construct: having the Ig-like C2 type 1 and the Ig-like C2 type 2 domains and lacking the Ig-like V domain (the C1C2 construct); expressed in transfected cells
T2 sequence (Q96NY8 148-510): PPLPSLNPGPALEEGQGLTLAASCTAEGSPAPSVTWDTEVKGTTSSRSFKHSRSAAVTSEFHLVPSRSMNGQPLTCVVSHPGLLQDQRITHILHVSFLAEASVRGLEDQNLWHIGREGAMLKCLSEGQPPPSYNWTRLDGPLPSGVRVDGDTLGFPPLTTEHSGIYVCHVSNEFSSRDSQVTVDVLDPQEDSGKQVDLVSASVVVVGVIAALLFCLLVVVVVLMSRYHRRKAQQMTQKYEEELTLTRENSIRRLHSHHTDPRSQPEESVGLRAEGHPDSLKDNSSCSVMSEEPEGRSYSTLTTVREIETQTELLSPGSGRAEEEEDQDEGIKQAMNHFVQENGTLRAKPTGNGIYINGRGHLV

B1: N4 ADC2: Anti-Nectin-4 antibody conjugated to a second camptothecin (SN-38) containing linker (conjugate)
VH: QVQLKQSGPGLVQPSQSLSITCTVSGFSLTNYGVHWVRQSPGKGLEWLGVIWSGGSTDYNAAFISRLSISKDTSKSQVFFKMNSLQADDTAIYYCARELIHAMDNWGQGTSVTVSS
VL: DIQMTQSPASLSVSVGETVTITCRASENIYSNLAWYQQKQGNSPQLLVFAATNLADGVPSRFSGSGSGTQYSLKINSLQSEDFGTYYCQHFWGTPTFGGGTKLEIK
B2: N41: anti-Nectin-4 antibody, VH and VL of SEQ ID NOS: 9 and 10 as human IgG1 isotype (antibody, listed as Mus musculus, V domains shown)
VH: B1 VH
VL: B1 VL
modifications: human IgG1 constant regions

Tests used:
[1] = system: advanced or metastatic urothelial tract tumors; settings: cited from earlier work
[2] = system: pancreatic cancer; settings: 349 patients; cited from earlier work
[3] = system: UC; settings: cited from earlier work
[4] = system: SUM185 cells; test: Fab-ZAP internalization assay (cell viability, CTG); format: cell-based, human; settings: SUM185 (higher Nectin-4)
Experimental: (§1) The ability of the anti-nectin-4 antibodies to induce nectin-4 internalization was assessed on SUM190 cell lines expressing lower levels of nectin-4 and in SUM185 cells expressing higher levels of Nectin-4. […] Internalization was indirectly determined by using the Fab-ZAP human Internalization Kit (Advanced Targeting Systems) to allow the anti-Nectin-4 antibodies to target and eliminate Nectin-4 expressing cells, with measurement of cell viability using the CTG substrate (CellTiter-Glo® Luminescent Cell Viability Assay (Promega). Fab-ZAP is a chemical conjugate of goat anti-human monovalent antibody and the ribosome-inactivating protein, saporin. The antibodies used are affinity-purified polyclonal antibodies against both the heavy and light chain of human IgG. This secondary conjugate is used to evaluate the potential of a primary antibody to internalize.
(§2) Briefly, a concentration range of the antibodies or the control items was incubated on top of the SUM190 or SUM185 cells. After the incubation, the non-bound antibodies were washed away and Fab-ZAP was added on top of the cells. The newly formed complexes (anti-nectin-4 antibody+Fab-ZAP) internalized into the cells where the Saporin was released and stopped the protein synthesis leading to cell death. The internalization capability of the antibody was indirectly determined by the cells viability: the more efficient was the cell killing; the better was the internalization capability of the antibody.

[5] = system: SUM190 cells; test: as above; format: cell-based, human; settings: SUM190 (lower Nectin-4)
Experimental: as §1, §2

[6] = target: T1, wild-type human Nectin-4 protein; test: Flow cytometry binding to CHO cells expressing wild-type Nectin-4
Experimental: (§3) The characterization of the binding of the antibodies on Nectin-4 domains was performed by flow cytometry using cells made to express the wild-type human Nectin-4 protein and cells made to express a modified Nectin-4 having the Ig-like C2 type 1 and the Ig-like C2 type 2 domains and lacking the Ig-like V domain (the C1C2 construct). The latter protein additionally bears a V5 tag for flow cytometry cell sorting, and cells were used as Nectin4-C1C2-V5 sorted cells.
(§4) Wild-type Nectin-4 (the CI.3C8 cell line), a C2 construct (containing the Ig-like C2 type 2 domain and lacking both the V and the C1 domains) and the C1C2 construct allow the determination of whether test antibodies bind to the V or different C domains. Briefly, nucleic acid sequences encoding different human Nectin-4 domains were amplified by PCR. The PCR products were inserted into an expression vector at appropriate restriction sites. A leader peptide, and for C1C2 and C2 an N-terminal V5 tag having the amino acid sequence […] (SEQ ID NO: 13), were added, and expression at the surface of cells was confirmed by flow cytometry. The amino acid sequences of the resulting different human Nectin-4 domain fragment-containing proteins are shown below (V5 tag underlined). The vectors were then transfected into the CHO cell line to obtain stable clones expressing the different Nectin-4 domain proteins at the cell surface.

[7] = target: T2, modified Nectin-4 lacking the Ig-like V domain (the C1C2 construct); format: binding; settings: flow cytometry, CHO cells
Experimental: as §3, §4

[8] = system: modified Nectin-4 lacking the Ig-like V domain (the C1C2 construct); format: binding, human; settings: concluded from wild-type versus C1C2 binding
Experimental: as §3, §4

[9] = system: SUM190 tumor cells; test: ADC-induced tumor cell death, Cell Titer Glo viability at day 6; format: cell-based, human
Experimental: The resulting ADCs were tested for their ability to induce death of Nectin-4/Her2 expressing SUM190 and SUM185 tumor cells of Example 1. Briefly, cells were plated cells in 96 well plates (V=80 μl). N4 ADC1 and Her2 ADC1 or human IgG1-isotype control (IC)-linker-toxin or medium (conc. 5×) were tested in 1:2 serial dilution starting from (530 nM to 30 nM) and in a 1:5 serial dilution (7 nM to 7×10−2 nM) for the N4 ADC1 and isotype control. N4 ADC2 and isotype control were tested in 1:10 serial dilution starting from (530 nM to 5.3 10-2). The ADCs' ability to cause cell death was determined by assessing confluence using Incucyte S3-2 apparatus; viability at day 6 after treatment was determined using the Cell Titer Glo™ (CTG) assay with an Enspire2 apparatus. IC50 values for each ADC was determined using Luminescent Cell Viability at day 6 data with GraphPad Prism8. Experiments were repeated twice.
The anti-Nectin-4 camptothecin-analogue ADCs used were the N4 ADC1 as shown in Example 2. The anti-Her2 ADCs were also those used in Example 2 (Her2 ADC1). The ADC's ability to cause cell death was determined by assessing confluence and determining viability of SUM190 cells at day 6 as described in Example 2.

Molecule	ability to induce internalization [4]	ability to induce internalization [5]	binding to whole Nectin-4 protein [6]	binding to C1C2 construct lacking the V domain [7]	Nectin-4 domain bound [8]	further results
CC[C@@]1(O)C(=O)OCc2c1cc1n(c2=O)Cc2cc3c([N+](=O)[O-])cccc3nc2-1 [RFS2000]						activity in patients failing prior chemotherapy [1]: did not exert significant activity
CC[C@@]1(O)C(=O)OCc2c1cc1n(c2=O)Cc2c-1nc1cc(F)c(C)c3c1c2[C@@H](N)CC3 [exatecan]						efficacy of exatecan in addition to gemcitabine versus gemcitabine alone [2]: not superior in efficacy to gemcitabine alone
enfortumab vedotin						CR (complete response rate) ([3]; UC patients): 12%; ORR (objective response rate) ([3]; UC patients): 44%; discontinuation due to progressive disease as assessed by RECIST ([3]; UC patients): 48%; discontinuation due to progressive disease by clinical symptoms ([3]; UC patients): 5%; patients that discontinued experienced adverse events, notably neuropathy [3]: 18%
enfortumab: anti-Nectin-4 antibody, VH and VL of SEQ ID NOS: 3 and 4 as human IgG1 isotype	highly potent in the ability to induce of internalization	highly potent in the ability to induce of internalization	bound to the whole Nectin-4 protein	lost binding	within the V domain	
B1						potency in causing tumor cell death (in words) [9]: good potency
B2	highly potent in the ability to induce of internalization	highly potent in the ability to induce of internalization	bound to the whole Nectin-4 protein	lost binding	within the V domain	
